Measured values taken from paper PMC9518609, “Design and synthesis of new trimethoxylphenyl-linked combretastatin analogues loaded on diamond nanoparticles as a panel for ameliorated solubility and antiproliferative activity” (Journal of Enzyme Inhibition and Medicinal Chemistry, 2022).

Experiments:
β-tubulin = β-tubulin polymerisation inhibition assay (Human Beta-tubulin ELISA kit) on MDA-MB-231 cells; type: cell-based; conditions: MDA-MB-231 cell line, each compound at its IC50 concentration
Protocol: Trimethoxy phenyl fragment-containing natural stilbenoid-derived molecules, such as Colchicine and CA-4 bind to β-tubulin subunit at the colchicine binding site resulting in inhibition of microtubule assembly and suppression of its formation. […] From the obtained results it can be concluded that the antiproliferative activity of the synthesised triazinone-linked CA-4 derivatives may be derived from the inhibition of microtubule assembly.
Triazinone derivatives 6 and 12 were assessed for their tubulin inhibitory activity according to manufacturer’s instructions using # abcam Human Beta-tubulin simple step ELISA Kit ab245722.
(§1) Part I: Biological Studies
(§2) 4.3. Biological evaluation
(§3) 4.3.1. Cytotoxic activity evaluation
(§4) The cytotoxic actvity of the synthesized derivatives 2a-13e was measured in MDA-MB-231 breast cancer cell line and derivatives 6 and 12 in MCF-10A […].
(§5) Cell viability assay was assessed using MTT assay method. Cells at density of 1 x 104 were seeded in a 96-well plate at 37 °C for 24 h under 5% CO2. After incubation, the cells were treated with different concentrations of the test schiff bases 2a-13e and incubated for 24 h, then 20 µl of MTT solution at 5 mg/mL was applied and incubated for 4 h at 37 °C.
(§6) Dimethyl sulphoxide (DMSO) in volume of 100 µl was added to each well to dissolve the purple formazan that had formed. The color intensity of the formazan product, which represents the growth condition of the cells, is quantified by using an ELISA plate reader (EXL 800, USA) at 570 nm absorbance. The experimental conditions were carried out with at least three replicates, and the experiments were repeated at least three times.
4.3.2. Tubulin inhibitions Assay
(§7) Compounds 6, 12 and CA-4 were evaluated for their tubulin inhibitory activity according to manufacturer’s instructions using # abcam Human Beta-tubulin simplestep ELISA Kit ab245722. MDA-MB-231 cells were trypsinized, counted and seeded at the 2 × 105 into 96-well micro titer plates. […]
(§8) (O.D.) was measured at 450±10 nm using microplate reader (Spectromax Plus 96 well plate […]

MCF-10A = assay: MTT cytotoxic activity against breast MCF-10A cell line; type: cell-based; conditions: Homo sapiens, MCF-10A; MTT assay, 24 h treatment
Description: (§9) All the synthesised compounds were screened for their cytotoxic activity against breast MDA-MB-231 cancer cell line and compounds 6 and 12 against breast MCF-10A cell line taking CA-4 as a positive control for the analysis. The in vitro cytotoxicity results of the prepared compounds were systematised in Table 1. […] Structurally, the prepared molecules contain three structural variations; including rotatable hydrazide derivatives, the core exchange with imidazolone ring, and the ring expansion with triazinone motif. […] It is noticed that directly attached benzene ring to triazinone scaffold (compound 6) or bioisosteric group (thiazolyl ester) as in compound 12, may contribute to the astonishing cytotoxicity against breast MDA-MB-231 cancer cells.
as §1, §2, §3, §4, §5
as §6, with “The experimental conditions were carried out with at least three replicates, and the experiments were repeated at least three times.” left out
as §7, §8

MDA-MB-231 = assay: MTT cytotoxic activity against breast MDA-MB-231 cancer cell line; type: cell-based; conditions: Homo sapiens, MDA-MB-231; MTT assay, 24 h treatment
Description: as §9
To measure the cytotoxic activity of the synthesised derivatives 2a–13e in breast cancer (MDA-MB-231) cell line. MTT assay method was applied to assess cell viability assay. All experimental steps were conducted as reported earlier.
as §1, §2, §3, §4, §5
as §6, with “times. […]” for “times.”

melting point | Structure (SMILES) | % Inhibition of β-tubulin polymerisation (β-tubulin) | IC50 (MCF-10A) | IC50 (MDA-MB-231)
– | COc1ccc(/C=C\c2cc(OC)c(OC)c(OC)c2)cc1O [CA-4, Combretastatin-A4, reference compound] | 87.05 ± 0.08% | 8.91 ± 0.71 µM | 0.55 ± 0.09 µM
236 to 238 °C | COc1cc(C=C(NC(=O)c2cc(OC)c(OC)c(OC)c2)C(=O)NNC(=O)c2ccc(Br)cc2)cc(OC)c1OC [Compound 2b, N-(3-(2-(4-bromobenzoyl)hydrazinyl)-3-oxo-1-(3,4,5-trimethoxyphenyl)prop-1-en-2-yl)-3,4,5-trimethoxybenzamide] | – | – | 39.7 ± 1.8 µM
212 to 214 °C | COc1cc(C=C2N=C(c3cc(OC)c(OC)c(OC)c3)NC2=O)cc(OC)c1OC [Compound 4, 4-(3,4,5-trimethoxybenzylidene)-2-(3,4,5-trimethoxyphenyl)-1H-imidazol-5(4H)-one] | – | – | 36.8 ± 2.81 µM
212 to 214 °C | COc1cccc(-c2csc(N3NC(=O)C(=Cc4cc(OC)c(OC)c(OC)c4)N=C3c3cc(OC)c(OC)c(OC)c3)n2)c1 [Compound 13e, 2-(4-(3-Methoxyphenyl)thiazol-2-yl)-5-(3,4,5-trimethoxybenzylidene)-3-(3,4,5-trimethoxyphenyl)-1,2-dihydro-1,2,4-triazin-6(5H)-one] | – | – | 33.5 ± 2.47 µM
212 to 214 °C | COc1cc(C=C2N=C(c3cc(OC)c(OC)c(OC)c3)N(c3nc(-c4ccc(Br)cc4)cs3)NC2=O)cc(OC)c1OC [Compound 13c, 2-(4-(4-Bromophenyl)thiazol-2-yl)-5-(3,4,5-trimethoxybenzylidene)-3-(3,4,5-trimethoxyphenyl)-1,2-dihydro-1,2,4-triazin-6(5H)-one] | – | – | 10.1 ± 0.54 µM
210 to 212 °C | CCOC(=O)Cc1csc(NNC(=O)C(=Cc2cc(OC)c(OC)c(OC)c2)NC(=O)c2cc(OC)c(OC)c(OC)c2)n1 [Compound 10, ethyl 2-(2-(2-(2-(3,4,5-trimethoxybenzamido)-3-(3,4,5-trimethoxyphenyl)acryloyl)hydrazinyl)thiazol-4-yl)acetate] | – | – | 4.8 ± 0.21 µM
212 to 214 °C | COc1cc(C=C(NC(=O)c2cc(OC)c(OC)c(OC)c2)C(=O)NNc2nc(-c3ccc(Cl)cc3)cs2)cc(OC)c1OC [Compound 11b, N-(3-(2-(4-(4-chlorophenyl)thiazol-2-yl)hydrazinyl)-3-oxo-1-(3,4,5-trimethoxyphenyl)prop-1-en-2-yl)-3,4,5-trimethoxybenzamide] | – | – | 8.59 ± 2.38 µM
212 to 214 °C | COc1cc(C=C(NC(=O)c2cc(OC)c(OC)c(OC)c2)C(=O)NNc2nc(-c3cccc([N+](=O)[O-])c3)cs2)cc(OC)c1OC [Compound 11d, 3,4,5-Trimethoxy-N-(3-(2-(4-(3-nitrophenyl)thiazol-2-yl)hydrazinyl)-3-oxo-1–(3,4,5-trimethoxyphenyl)prop-1-en-2-yl)benzamide] | – | – | 12.2 ± 0.65 µM
212 to 214 °C | COc1cc(C=C(NC(=O)c2cc(OC)c(OC)c(OC)c2)C(=O)NNc2nc(-c3ccc(Br)cc3)cs2)cc(OC)c1OC [Compound 11c, N-(3-(2-(4-(4-bromophenyl)thiazol-2-yl)hydrazinyl)-3-oxo-1-(3,4,5-trimethoxyphenyl)prop-1-en-2-yl)-3,4,5-trimethoxybenzamide] | – | – | 25.7 ± 1.9 µM
212 to 214 °C | COc1cccc(-c2csc(NNC(=O)C(=Cc3cc(OC)c(OC)c(OC)c3)NC(=O)c3cc(OC)c(OC)c(OC)c3)n2)c1 [Compound 11e, 3,4,5-Trimethoxy-N-(3-(2-(4-(3-methoxyphenyl)thiazol-2-yl)hydrazinyl)-3-oxo-1–(3,4,5-trimethoxyphenyl)prop-1-en-2-yl)benzamide] | – | – | > 100 µM
212 to 214 °C | COc1cc(C=C(NC(=O)c2cc(OC)c(OC)c(OC)c2)C(=O)NNC(=S)Nc2ccccc2)cc(OC)c1OC [Compound 3, 3,4,5-trimethoxy-N-(3-oxo-3-(2-(phenylcarbamothioyl)hydrazinyl)-1-(3,4,5-trimethoxyphenyl)prop-1-en-2-yl)benzamide] | – | – | 14.9 ± 0.8 µM
227 to 229 °C | COc1cc(C=C(NC(=O)c2cc(OC)c(OC)c(OC)c2)C(=O)NNC(=O)c2ccncc2)cc(OC)c1OC [Compound 2c, N-(3-(2-isonicotinoylhydrazinyl)-3-oxo-1-(3,4,5-trimethoxyphenyl)prop-1-en-2-yl)-3,4,5-trimethoxybenzamide] | – | – | 13.2 ± 0.71 µM
